Activity calls are given as the source filed them. The rule behind the calls is not given here.
Columns and labels:
Mus musculus [1] = test: Anti-nociceptive activity in ip dosed Swiss mouse assessed as inhibition of acetic acid-induced writhing dosed 40 mins before acetic acid injection and measured over 25 mins; assay type: functional; settings: read-out: ID50 (the source's name)
Mus musculus [2] = test: Anti-nociceptive activity in Swiss mouse assessed as reduction in time spent in licking injected paw during inflammatory phase at 100 umol/kg, ip dosed 40 mins before formalin injection; assay type: functional, organism-based
Mus musculus [3] = test: Anti-nociceptive activity in Swiss mouse assessed as reduction in time spent in licking injected paw during neurogenic phase at 100 umol/kg, ip dosed 40 mins before formalin injection; assay type: functional, organism-based
Mus musculus [4] = test: Anti-nociceptive activity in ip dosed Swiss mouse assessed as inhibition of acetic acid-induced writhing dosed 40 mins before acetic acid injection and measured over 25 mins relative to control; assay type: functional
Rattus norvegicus [5] = test: Renal toxicity in Wistar rat model complete Freund's adjuvant-induced arthritis assessed as effect on urea levels at 100 umol/kg, ip dosed from day 14 to day 21 after immunization; assay type: organism-based; settings: in vivo
Rattus norvegicus [6] = test: Anti-inflammatory activity in Wistar rat model complete Freund's adjuvant-induced arthritis assessed as reduction in paw edema at 100 umol/kg, ip dosed from day 14 to day 21 after immunization and measured on day 17; assay type: functional, organism-based
Rattus norvegicus [7] = test: Anti-inflammatory activity in Wistar rat model complete Freund's adjuvant-induced arthritis assessed as reduction in paw edema at 100 umol/kg, ip dosed from day 14 to day 21 after immunization and measured on until day of sacrifice; assay type: functional, organism-based
Rattus norvegicus [8] = test: Hepatotoxicity in Wistar rat model complete Freund's adjuvant-induced arthritis assessed as effect on serum ALT level at 100 umol/kg, ip dosed from day 14 to day 21 after immunization; assay type: toxicity, organism-based; settings: in vivo
Rattus norvegicus [9] = test: Renal toxicity in Wistar rat model complete Freund's adjuvant-induced arthritis assessed as effect on creatinine levels at 100 umol/kg, ip dosed from day 14 to day 21 after immunization; assay type: organism-based; settings: in vivo
Rattus norvegicus [10] = test: Hepatotoxicity in Wistar rat model complete Freund's adjuvant-induced arthritis assessed as effect on serum AST level at 100 umol/kg, ip dosed from day 14 to day 21 after immunization; assay type: toxicity, organism-based; settings: in vivo
Mus musculus [11] = test: Anti-inflammatory activity in Swiss mouse assessed as inhibition of zymosan-induced peritonitis by measuring reduction in leukocyte migration at 100 umol/kg, ip administered 30 min before the zymosan injection; assay type: functional
Rattus norvegicus [12] = test: Toxicity in Wistar rat model complete Freund's adjuvant-induced arthritis assessed as effect on spleen weight at 100 umol/kg, ip dosed from day 14 to day 21 after immunization; assay type: organism-based; settings: in vivo
Mus musculus [13] = test: Anti-nociceptive activity in Swiss mouse assessed as reduction in paw licking response during inflammatory phase at 100 umol/kg, ip dosed 40 mins before formalin injection; assay type: functional
Rattus norvegicus [14] = test: Anti-inflammatory activity in Wistar rat model complete Freund's adjuvant-induced arthritis assessed as reduction in paw edema at 5 umol/kg, ip dosed from day 14 to day 21 after immunization and measured on day 16; assay type: functional, organism-based
Mus musculus [15] = test: Anti-nociceptive activity in Swiss mouse assessed as reduction in paw licking response during inflammatory phase at 10 umol/kg, ip dosed 40 mins before formalin injection; assay type: functional
Mus musculus [16] = test: Anti-inflammatory activity in Swiss mouse assessed as inhibition of zymosan-induced peritonitis by measuring reduction in leukocyte migration at 10 umol/kg, ip administered 30 min before the zymosan injection; assay type: functional

Row | Compound | ED50 (Mus musculus [1]) | Activity (Mus musculus [2]) | Activity (Mus musculus [3]) | Emax (Mus musculus [4]) | also measured
1 | NCCNCCNc1ccnc2cc(Cl)ccc12 | 39.4 µmol/kg | Active | Active | 86.4% | –
2 | Cc1c(N(C)CS(=O)(=O)O)c(=O)n(-c2ccccc2)n1C [METAMIZOLE] | 36.8 µmol/kg | – | – | 74.8% | –
3 | NCCNCCNc1ccnc2cc(C(F)(F)F)ccc12 | 15.3 µmol/kg | Active | Active | 96.7% | Activity (Rattus norvegicus [5]): Non-toxic; Activity (Rattus norvegicus [6]): Active; Activity (Rattus norvegicus [7]): Active; Activity (Rattus norvegicus [8]): Non-toxic; Activity (Rattus norvegicus [9]): Non-toxic; Activity (Rattus norvegicus [10]): Non-toxic; inhibition in vivo at 100 µmol/kg (Mus musculus [11]): 59.1%; Activity (Rattus norvegicus [12]): Non-toxic; inhibition in vivo at 100 µmol/kg (Mus musculus [13]): 89.6%
4 | C[C@@H]1C[C@H]2[C@@H]3CCC4=CC(=O)C=C[C@]4(C)[C@@]3(F)[C@@H](O)C[C@]2(C)[C@@]1(O)C(=O)CO | – | – | – | – | Activity (Rattus norvegicus [14]): Active
5 | COc1ccc2c(c1)c(CC(=O)O)c(C)n2C(=O)c1ccc(Cl)cc1 [INDOMETHACIN] | – | – | – | – | inhibition in vivo at 10 µmol/kg (Mus musculus [15]): 50.8%; inhibition in vivo at 10 µmol/kg (Mus musculus [16]): 75.8%
6 | NCCNCCNc1cc(C(F)(F)F)nc2ccccc12 | 26.6 µmol/kg | Active | Active | 95.1% | –

Source: ChEMBL document CHEMBL3596111, “Synthesis and evaluation of the anti-nociceptive and anti-inflammatory activity of 4-aminoquinoline derivatives” (Bioorg Med Chem, 2015)
